What was measured:
[1] = test system: CD4+ lymphocytes; assay: CD4+ proliferation assay (αCD3/αCD28 stimulation, 3H-methylthymidin incorporation); format: cell-based; conditions: Lymphocyte, αCD3/αCD28 stimulated CD4+ lymphocytes, 48 h incubation, read-out: Inhibition of CD4+ cell proliferation [measured as IC50 (μmol/l)]
Method: (§1) CD4+ lymphocytes were purified as described by Hatzelmann and Schudt (J Pharmacol Exp Ther 297: 267-279) and resuspended in assay medium (RPMI 1640/10% fetal calf serum (FCS) containing 2 mM Glutamine, 1% sodiumpyruvate, 1% non-essential amino acids and 1% penicillin/streptomycin) at a density of 1×10^6 cells/ml. 96 well plates were coated with αCD3 antibodies (0.3 μg/well; Ortho-clone OKT-3, Jansen-Cilag) for 2.5 h at 37° C. in 5% CO2 and then washed twice with PBS (200 μl/well). Prior to plating of the cells (200 μl, 2×10^5 cells) the compounds of formula 1 dissolved in 2% DMSO were added to the antibody-coated plates at the desired concentrations. Following a preincubation period of 30 min at 37° C. and 5% CO2 10 μl of αCD28 antibody (3 μg/ml, Beckman) were added and incubation continued for 48 h at 37° C. and 5% CO2. 18 h prior to cell harvest 10 μl of ^3H-methylthymidin (0.2 μCi, Amersham) were added. After 48 h total incubation time the cells were lysed using deionized water and radiolabeled DNA was immobilized on 96 well filter plates using a Tomtec device. The plates were dried at 60° C. for 1 h and overlayed with 40 μl Microscint-O (Packard) before counting in a Topcount radioactivity counter (Packard). Calculation of IC50 values was performed as described above.

[2] = target: recombinant human PKC-θ enzyme (Homo sapiens, UniProt Q04759); assay: Protein Kinase C-θ assay (SPA, 33P-ATP phosphorylation of biotinylated substrate peptide); format: biochemical; conditions: 1 μM ATP, 40 min at room temperature, 1% DMSO, read-out: Inhibition of PKC-θ activity [measured as IC50 (μmol/l)]
Sequence of recombinant human PKC-θ enzyme (Q04759 whole entry): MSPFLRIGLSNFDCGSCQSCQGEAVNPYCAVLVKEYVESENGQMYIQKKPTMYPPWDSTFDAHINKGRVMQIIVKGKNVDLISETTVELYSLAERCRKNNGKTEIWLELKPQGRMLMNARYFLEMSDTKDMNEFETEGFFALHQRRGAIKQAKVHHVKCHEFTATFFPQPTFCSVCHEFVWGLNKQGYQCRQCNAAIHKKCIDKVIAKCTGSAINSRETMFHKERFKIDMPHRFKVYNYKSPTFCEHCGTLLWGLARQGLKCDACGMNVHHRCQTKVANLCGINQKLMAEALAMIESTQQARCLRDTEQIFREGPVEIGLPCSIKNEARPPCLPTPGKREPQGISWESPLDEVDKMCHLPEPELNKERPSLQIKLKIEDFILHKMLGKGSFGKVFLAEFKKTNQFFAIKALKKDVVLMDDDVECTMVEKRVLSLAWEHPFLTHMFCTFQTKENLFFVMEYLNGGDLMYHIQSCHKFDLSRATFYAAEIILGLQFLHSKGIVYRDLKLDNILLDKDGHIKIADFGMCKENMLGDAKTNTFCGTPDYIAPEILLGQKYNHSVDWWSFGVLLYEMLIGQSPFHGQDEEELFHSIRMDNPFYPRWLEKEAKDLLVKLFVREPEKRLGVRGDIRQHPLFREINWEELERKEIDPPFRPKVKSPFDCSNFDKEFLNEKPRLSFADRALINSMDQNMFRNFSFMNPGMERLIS
Method: The compounds of formula 1 were tested for their activity on PKC-θ according to the following method. The assay was performed in 96 well microtiter plates (Perkin Elmer Wallac) at a final assay volume of 200 μl. The reaction mixture (50 μl) contained 10 μl of recombinant human PKC-θ enzyme together with 5 μl of the test compound and 3 μM biotinylated PKC-θ substrate peptide (Biotin-RKRQRSMRRRVHOH), 160 μM phosphatidylserine, 0.3 mg/ml BSA, 1 μM ATP and 2 μCi of ^33γ-ATP (Amersham) in 40 mM Tris-buffer pH 7.4. Incubation was performed for 40 min at room temperature. The reaction was stopped by adding 150 μl of a mixture containing 10 mM ATP and 1.33 mg/ml streptavidin coated yttrium silicate SPA beads (Amersham). Incorporated radioactivity (cpm) was measured for 2 min in a radioactivity counter (Wallac MicroBeta JET). […] IC50 values for inhibition of PKC-θ were calculated from the concentration-inhibition curves by nonlinear-regression.

[3] = test system: CD4+ T lymphocytes; assay: CD4+ IL-2 secretion assay (ELISA of supernatants); format: cell-based; conditions: αCD3/αCD28 stimulated CD4+ T lymphocytes, 48 h incubation, IL-2 in supernatants by ELISA; read-out: Inhibition of IL-2 secretion in CD4+ cell [measured as IC50 (μmol/l)]
Method: as §1
CD4+ T lymphocytes were stimulated and treated with compounds of formula 1 as described above for the CD4+ proliferation assay. Following a 48 h incubation period IL-2 levels in the supernatants (50 μl/well) were determined by ELISA (Beckman Coulter). Calculation of IC50 values was performed as described above.

Row | Structure (SMILES) | IC50 [1] [µmol/L] | IC50 [2] [µmol/L] | IC50 [3] [µmol/L]
1 | c1ccc(CN2CCC(Nc3nc(NCc4ccccn4)ncc3-c3ccsc3)CC2)cc1 [Example 1, [1-Benzyl(4-piperidyl)]{2-[(2-pyridylmethyl)amino]-5-(3-thienyl)pyrimidin-4-yl}amine] | < 4 | < 4 | < 4
2 | NC(=O)c1ccc(-c2cnc(NCc3ccncc3)nc2NC2CCN(Cc3ccccc3)CC2)cc1 [Example 6, {5-(Phenyl-4-carboxamido)-2-[(4-pyridylmethyl)amino)pyrimidin-4-yl}[1-benzyl(4-piperidyl)]-amine] | – | – | < 4
3 | c1ccc(CN2CCC(Nc3nc(NCc4ccncc4)ncc3-c3cccs3)CC2)cc1 [Example 8, {5-(2-Thienyl)-2-[(4-pyridylmethyl)amino)pyrimidin-4-yl}[1-benzyl(4-piperidyl)]amine] | < 4 | – | < 4
4 | c1ccc(CN2CCC(Nc3nc(NCc4ccccn4)ncc3-c3ccco3)CC2)cc1 [Example 12, {5-(2-Furanyl)-2-[(2-pyridylmethyl)amino)pyrimidin-4-yl}[1-benzyl(4-piperidyl)]amine] | – | < 4 | < 4
5 | c1ccc(CN2CCC(Nc3nc(NCc4ccccn4)ncc3-c3ccoc3)CC2)cc1 [Example 13, {5-(3-Furanyl)-2-[(2-pyridylmethyl)amino)pyrimidin-4-yl}[1-benzyl(4-piperidyl)]amine] | – | < 4 | < 4
6 | c1ccc(CN2CCC(Nc3nc(NCc4ccccn4)ncc3-c3cccs3)CC2)cc1 [Example 14, {5-(2-Thienyl)-2-[(2-pyridylmethyl)amino)pyrimidin-4-yl}[1-benzyl(4-piperidyl)]amine] | < 4 | < 4 | < 4
7 | NC(=O)c1ccc(-c2cnc(NCc3ccccn3)nc2NC2CCN(Cc3ccccc3)CC2)cc1 [Example 15] | < 4 | < 4 | < 4
8 | CC(=O)c1ccc(-c2cnc(NCc3ccccn3)nc2NC2CCN(Cc3ccccc3)CC2)cc1 [Example 21] | – | < 4 | –
9 | CC(=O)c1cccc(-c2cnc(NCc3ccccn3)nc2NC2CCN(Cc3ccccc3)CC2)c1 [Example 22, 1-(3-[4-(1-Benzyl-piperidinylamino)-2-[(pyridin-2-ylmethyl)-amino]-pyrimidin-5-yl}phenyl)-ethanone] | – | < 4 | –

Reference: patent US20050222186A1, “Substituted diaminopyrimidines” (Altana Pharma AG, priority 2002, published 2005)
